Drawing on ChEMBL document CHEMBL4229475, “Synthesis of novel imidazopyridines and their biological evaluation as potent anticancer agents: A promising candidate for glioblastoma” (Bioorg Med Chem Lett, 2018), this text covers Activity, IC50 and viability for eight compounds.

The subject of experiment [1] is LN-405. Description: Cytotoxicity against human LN405 cells assessed as decrease in cell viability at 100 uM after 96 hrs by MTT assay. The format is functional, cell-based. (In general: Tetrazolium dyes change colour on reduction, which living cells bring about.)
Experiment [2] can be described thus: Cytotoxicity against human WS1 cells assessed as decrease in cell viability after 96 hrs by MTT assay. The format is cell-based. The following applies: WS1, 96 h.
The subject of experiment [3] is LN-405. Nature of the experiment: Cell cycle arrest in human LN405 cells assessed as decrease in cell levels at S phase at IC50 after 72 hrs by propidium iodide staining-based flow cytometric method. The format is functional.
For experiment [4], the system named is LN-405. Nature of the experiment: Induction of DNA damage in human LN405 cells assessed as cell with damage DNA at IC50 after 72 hrs by COMET assay (reference value: 0.7%). The format is functional.
For experiment [5], the system named is LN-405. Description: Cell cycle arrest in human LN405 cells assessed as accumulation at G0/G1 phase at IC50 after 72 hrs by propidium iodide staining-based flow cytometric method relative to control. The format is functional. A general note: Flow cytometry measures light scatter and fluorescence of single cells or particles in a stream.
Experiment [6] deals with LN-405. Nature of the experiment: Cytotoxicity against human LN405 cells assessed as decrease in cell viability after 96 hrs by MTT assay. The format is functional, cell-based. As to conditions: LN-405, 96 h.
Experiment [7] concerns LN-405. Description: Cytotoxicity against human LN405 cells assessed as cell viability at 100 uM after 96 hrs by MTT assay relative to control. The format is functional. As to conditions: LN-405, 96 h, read-out: Activity.

SMILES strings stand for the structures. pIC50: −log10 of the molar value. Activity calls are given as the source filed them. The rule behind the calls is not given here.

For the compound `CC1CCN(c2cc(-c3ccc(-c4ccccc4)cc3)c3nc(-c4ccc(-c5ccccc5)cc4)cn3c2)CC1`, the result with LN-405 [1] was inactive.

What is called pIC50 is −log10 of the IC50, conventionally taken in molar units. Consider `CC1CCN(c2cc(-c3ccc(F)cc3)c3nc(-c4ccc(F)cc4)cn3c2)CC1`, for which the pIC50 in experiment [2] is 3.07; in the experiment on LN-405 [6], 4.12. For the same compound, the outcome in the experiment with LN-405 [3] was Active. Besides, the values for the Activity in the experiment on LN-405 [4] and with LN-405 [5] were 0.9% and 98.2%, respectively. The viability at 100 µM in the experiment with LN-405 [7] came to 32%.

`CC1CCN(c2cc(-c3cccs3)c3nc(-c4cccs4)cn3c2)CC1`: in the experiment with LN-405 [1], the result was inactive.

Regarding `CC1CCN(c2cc(-c3ccc4ccccc4c3)c3nc(-c4ccc5ccccc5c4)cn3c2)CC1`, in the experiment with LN-405 [1], the result was inactive.

Regarding `COc1ccc(-c2cn3cc(N4CCC(C)CC4)cc(-c4ccc(OC)cc4)c3n2)cc1`, the viability at 100 µM in the experiment on LN-405 [7] turned out to be 80%.

For `CC1CCN(c2cc(-c3ccc(Br)s3)c3nc(-c4ccc(Br)s4)cn3c2)CC1`, the result with LN-405 [1] was inactive.

On to `CC1CCN(c2cc(-c3ccccc3)c3nc(-c4ccccc4)cn3c2)CC1`, for which the figures for the pIC50 (in experiment [2]; in the experiment with LN-405 [6]) were 3.32 and 5.00, respectively. Also, the outcome with LN-405 [3] was Active. The Activity in the experiment on LN-405 [4] is given as 14%; in the experiment with LN-405 [5], 99.2%. In the experiment on LN-405 [7], the viability at 100 µM was 6%.

On to `CC1CCN(c2cc(-c3ccc(Br)cc3)c3nc(-c4ccc(Br)cc4)cn3c2)CC1`, for which, in the experiment on LN-405 [1], the outcome was inactive.
